By melting point is commonly meant the temperature of the solid-liquid transition.

For 44 compounds, melting point results are on record in patent publication US8802678B2, “Carbonylated (aza) cyclohexanes as dopamine D3 receptor ligands” (Bioprojet, priority 2006, dated 2014).

As for `O=C(CC(F)(F)F)N[C@H]1CC[C@H](CCN2CCN(c3cccc(F)c3)CC2)CC1` [Example 409, 3,3,3-Trifluoro-N-(4-{2-[4-(3-fluorophenyl)piperazin-1-yl]ethyl}cyclohexyl)propanamide], the melting point was 195 °C.

`CCc1cccc(N2CCN(CCC3CCN(CC(C)=O)CC3)CC2)c1.Cl.Cl` returned a melting point of 266 °C.

`N#CCCCC(=O)N[C@H]1CC[C@H](CCN2CCN(c3ccc(F)c(C#N)c3F)CC2)CC1` [Example 688, 4-Cyano-N-(4-{2-[4-(3-cyano-2,4-difluorophenyl)piperazin-1-yl]ethyl}cyclohexyl)butanamide] returned a melting point of 203 °C.

In the case of `COCCCC(=O)N[C@H]1CC[C@H](CCN2CCN(c3cc(C(F)(F)F)cc(C(F)(F)F)c3)CC2)CC1` [Example 741, N-(4-{2-[4-(3,5-Bistrifluoro-methylphenyl)piperazin-1-yl]ethyl}cyclohexyl)-4-methoxybutanamide], the melting point was determined as 168 °C.

Turning to `COCC(=O)N[C@H]1CC[C@H](CCN2CCN(c3cccc(C#N)c3)CC2)CC1` [Example 86, N-(4-{2-[4-(3-Cyanophenyl)piperazin-1-yl]ethyl}cyclohexyl)-2-methoxyacetamide], the melting point worked out at 138 °C.

Take `CCC(=O)CN1CCC(CCN2CCN(c3cccc(Cl)c3Cl)CC2)CC1` [Example 771]: the melting point is 68 °C.

As for `CC(=O)CN1CCC(CCN2CCN(c3ccc(Cl)c(Cl)c3F)CC2)CC1.Cl.Cl`, the melting point is 230 °C.

Compound `N#CCC(=O)N[C@H]1CC[C@@H](CCN2CCN(c3ccc(C(F)(F)F)cc3)CC2)CC1` [Example 613, 2-Cyano-N-(4-{2-[4-(4-trifluoromethylphenyl)piperazin-1-yl]ethyl}cyclohexyl)acetamide] yielded a melting point of 156 °C.

As for `N#CCCCC(=O)N[C@H]1CC[C@H](CCN2CCN(c3cc(F)c(F)c(F)c3)CC2)CC1` [Example 374, 4-Cyano-N-(4-{2-[4-(3,4,5-trifluorophenyl)piperazin-1-yl]ethyl}cyclohexyl)butanamide], the melting point was 156 °C.

In turn, `N#CCCCC(=O)N[C@H]1CC[C@H](CCN2CC=C(c3ccc(C(F)(F)F)cc3)CC2)CC1` displayed a melting point of 185 °C.

For the compound `O=C(CC(F)(F)F)N[C@H]1CC[C@H](CCN2CCN(c3cccc(C(F)(F)F)c3)CC2)CC1` [Example 63, 3,3,3-Trifluoro-N-(4-{2-[4-(3-trifluoromethylphenyl)piperazin-1-yl]ethyl}cyclohexyl)propanamide], the melting point amounted to 156 °C.

As to `N#CCCCC(=O)N[C@H]1CC[C@H](CCN2CCN(c3cccc4c3CCC4)CC2)CC1` [Example 457, 4-Cyano-N-{4-[2-(4-indan-4-ylpiperazin-1-yl)ethyl]cyclohexyl}butanamide], the melting point was 157 °C.

Compound `CC(=O)CN1CCC(CCN2CCN(c3cc(Cl)cc(C(F)(F)F)c3)CC2)CC1.Cl.Cl` had a melting point of 289 °C.

Take `O=C(N[C@H]1CC[C@H](CCN2CC=C(c3ccc(F)cc3F)CC2)CC1)C1=CCCC1`: the melting point is 166 °C.

`CCC(=O)C(=O)N1CCC(CCN2CCN(c3cccc4c3CCC4)CC2)CC1.Cl`: the melting point amounted to 202 °C.

Take `CCOCC(=O)N[C@H]1CC[C@H](CCN2CCN(c3ccc(C)cc3)CC2)CC1` [Example 474, 2-Ethoxy-N-{4-[2-(4-p-tolylpiperazin-1-yl)ethyl]cyclohexyl}acetamide]: the melting point was determined as 130 °C.

As to `N#CCC(=O)N[C@H]1CC[C@H](CCN2CCN(c3cccc4c3CCC4)CC2)CC1` [Example 456, 2-Cyano-N-{4-[2-(4-indan-4-ylpiperazin-1-yl)ethyl]cyclohexyl}acetamide], the melting point was found to be 175 °C.

In turn, `N#CCCCC(=O)N[C@H]1CC[C@H](CCN2CC=C(c3ccccc3)CC2)CC1` came in with a melting point of 171 °C.

With `Cc1ccc(N2CCN(CC[C@H]3CC[C@H](NC(=O)CCCC#N)CC3)CC2)cc1` [Example 467, 4-Cyano-N-{4-[2-(4-p-tolylpiperazin-1-yl)ethyl]cyclohexyl}butanamide], the melting point amounted to 189 °C.

Compound `CC(=O)CN1CCC(CCN2CCN(c3cc(C)ccc3F)CC2)CC1.Cl.Cl` registered a melting point of 275 °C.

As for `CCOCC(=O)N[C@H]1CC[C@H](CCN2CCN(c3cc(C)c(F)cc3Cl)CC2)CC1` [Example 579, N-(4-{2-[4-(2-Chloro-4-fluoro-5-methylphenyl)piperazin-1-yl]ethyl}cyclohexyl)-2-ethoxyacetamide], the melting point amounted to 132 °C.

Consider `CCC(=O)C(=O)N[C@H]1CC[C@H](CCN2CCN(c3ccccc3F)CC2)CC1` [Example 89, N-(4-{2-[4-(2-Fluorophenyl)-piperazin-1-yl]ethyl}cyclohexyl)-2-oxobutanamide], for which the melting point is 156 °C.

In turn, `COCCCC(=O)N[C@H]1CC[C@H](CCN2CCN(c3cccc(Cl)c3C)CC2)CC1` [Example 547, N-(4-{2-[4-(3-Chloro-2-methylphenyl)piperazin-1-yl]ethyl}cyclohexyl)-4-methoxybutanamide] had a melting point of 188 °C.

Take `CSc1ccccc1N1CCN(CC[C@H]2CC[C@H](NC(=O)CC#N)CC2)CC1` [Example 194, 2-Cyano-N-(4-{2-[4-(2-methylsulfanylphenyl)piperazin-1-yl]ethyl}cyclohexyl)acetamide]: the melting point worked out at 146 °C.

For the compound `CCC(=O)C(=O)N1CCC(CCN2CCN(c3cccc(C(F)(F)F)c3)CC2)CC1.Cl`, the melting point was 148 °C.

With `O=C(CC(F)(F)F)N[C@H]1CC[C@H](CCN2CCN(c3ccc(Cl)cc3)CC2)CC1` [Example 480, N-(4-{2-[4-(4-Chlorophenyl)-piperazin-1-yl]ethyl}cyclohexyl)-3,3,3-trifluoropropanamide], the melting point is 234 °C.

`COCCCC(=O)N[C@H]1CC[C@H](CCN2CCN(c3cc(F)c(F)c(F)c3)CC2)CC1` [Example 568, 4-Methoxy-N-(4-{2-[4-(3,4,5-trifluorophenyl)piperazin-1-yl]ethyl}cyclohexyl)butanamide] came in with a melting point of 194 °C.

Consider `CC(=O)CN1CCC(CCN2CCN(c3cccc(Cl)c3Cl)CC2)CC1` [Example 21, 1-(4-{2-[4-(2,3-Dichlorophenyl)piperazin-1-yl]ethyl}piperidin-1-yl)propan-2-one], for which the melting point stood at 87 °C.

For `N#CCC(=O)N[C@H]1CC[C@H](CCN2CCN(c3ccc4c(c3)OCCO4)CC2)CC1` [Example 316, 2-Cyano-N-(4-{2-[4-(2,3-dihydrobenzo[1,4]dioxin-6-yl)piperazin-1-yl]ethyl}cyclohexyl)acetamide], the melting point was determined as 208 °C.

Consider `COCC(=O)N[C@H]1CC[C@H](CCN2CCN(c3ccccc3F)CC2)CC1` [Example 50, N-(4-{2-[4-(2-Fluorophenyl)-piperazin-1-yl]ethyl}cyclohexyl)-2-methoxyacetamide], for which the melting point was 143 to 144 °C.

With `N#CCCCC(=O)N[C@H]1CC[C@H](CCN2CCN(c3ccc4c(c3)CCCC4)CC2)CC1` [Example 510, 4-Cyano-N-(4-{2-[4-(5,6,7,8-tetrahydronaphthalen-2-yl)piperazin-1-yl]ethyl}cyclohexyl)butanamide], the melting point came out at 170 °C.

In turn, `N#CCC(=O)N[C@H]1CC[C@H](CCN2CCN(c3ccc(F)c(C(F)(F)F)c3)CC2)CC1` [Example 277, 2-Cyano-N-(4-{2-[4-(4-fluoro-3-trifluoromethylphenyl)piperazin-1-yl]ethyl}cyclohexyl)acetamide] had a melting point of 181 °C.

Turning to `COc1ccc(C(C)(C)C)cc1N1CCN(CC[C@H]2CC[C@H](NC(=O)CC#N)CC2)CC1` [Example 197, N-(4-{2-[4-(5-tert-Butyl-2-methoxyphenyl)piperazin-1-yl]ethyl}cyclohexyl)-2-cyanoacetamide], the melting point was 163 °C.

Compound `CC(C)C(O)c1cccc(N2CCN(CC[C@H]3CC[C@H](NC(=O)CC#N)CC3)CC2)c1` (some centres unmarked) [Example 575, 2-cyano-N-[4-(2-{4-[3-(1-hydroxy-2-methylpropyl)phenyl]piperazin-1-yl}ethyl)cyclohexyl]acetamide] showed a melting point of 119 °C.

On to `N#CCC(=O)N[C@H]1CC[C@H](CCN2CCN(c3ccccc3C#N)CC2)CC1` [Example 376, 2-Cyano-N-(4-{2-[4-(2-cyanophenyl)piperazin-1-yl]ethyl}cyclohexyl)acetamide], for which the melting point came out at 190 °C.

As to `N#CCC(=O)N[C@H]1CC[C@H](CCN2CC=C(c3cc(C(F)(F)F)cc(C(F)(F)F)c3)CC2)CC1`, the melting point stood at 174 °C.

In turn, `Cc1cc(N2CCN(CC[C@H]3CC[C@H](NC(=O)CCCC#N)CC3)CC2)ccc1F` [Example 358] displayed a melting point of 160 °C.

The compound `Cc1c(Cl)cccc1N1CCN(CC[C@H]2CC[C@H](NC(=O)CCCC#N)CC2)CC1` [Example 258, N-(4-{2-[4-(3-Chloro-2-methylphenyl)piperazin-1-yl]ethyl}cyclohexyl)-4-cyanobutanamide] returned a melting point of 180 to 183 °C.

For `CC(=O)CN1CCC(CCN2CCN(c3cccc4c3CCC4)CC2)CC1.Cl.Cl`, the melting point was determined as 295 °C.

`CC(=O)CN1CCC(CCN2CCN(c3ccc(Cl)c(Cl)c3Cl)CC2)CC1.Cl.Cl` came in with a melting point of 275 °C.

`CCOC(=O)Nc1cccc(N2CCN(CC[C@H]3CC[C@H](NC(=O)CC#N)CC3)CC2)c1` [Example 217, [3-(4-{2-[4-(2-Cyanoacetylamino)cyclohexyl]ethyl}piperazin-1-yl)phenyl] carbamic acid ethyl ester]: the melting point is 170 °C.

`N#CCC(=O)N[C@H]1CC[C@H](CCN2CC=C(c3ccccc3)CC2)CC1` showed a melting point of 203 °C.

Regarding `CCOCC(=O)N[C@H]1CC[C@H](CCN2CCN(c3cccc(Cl)c3C)CC2)CC1` [Example 137, N-(4-{2-[4-(3-Chloro-2-methylphenyl)piperazin-1-yl]ethyl}cyclohexyl)-2-ethoxyacetamide], the melting point turned out to be 143 °C.

As to `O=C(CC1C=CCC1)N[C@H]1CC[C@H](CCN2CCN(c3cccc(F)c3)CC2)CC1` (some centres unmarked) [Example 420, 2-Cyclopent-2-enyl-N-(4-{2-[4-(3-fluorophenyl)piperazin-1-yl]ethyl}cyclohexyl)acetamide], the melting point came out at 188 °C.
